Assay results from the NIST ThermoML archive (doi:10.1016/j.fluid.2005.07.017).
Numbers after ± are expanded uncertainties.

Assay: xn = mol fraction of the nth substance listed
Details: Liquid, Vibrating tube method

c1ccsc1 [thiophene] + O=C=O
Details	mass density [kg/m3]
342.91 K, 11019 kPa, x2 = 0.3818	967.88 ± 0.43
342.91 K, 11995 kPa, x2 = 0.3818	969.76 ± 0.43
342.91 K, 12980 kPa, x2 = 0.3818	971.64 ± 0.43
342.91 K, 14033 kPa, x2 = 0.3818	973.6 ± 0.43
342.91 K, 15024 kPa, x2 = 0.3818	975.41 ± 0.43
342.91 K, 15980 kPa, x2 = 0.3818	977.13 ± 0.43
342.91 K, 17026 kPa, x2 = 0.3818	978.96 ± 0.43
342.91 K, 18022 kPa, x2 = 0.3818	980.7 ± 0.43
342.91 K, 19019 kPa, x2 = 0.3818	982.41 ± 0.42
343.15 K, 101 kPa, x2 = 0	1002.15 ± 0.44
352.59 K, 4979 kPa, x2 = 0.199	974.07 ± 0.43
352.59 K, 5990 kPa, x2 = 0.199	975.64 ± 0.43
352.59 K, 7029 kPa, x2 = 0.199	977.28 ± 0.43
352.59 K, 8024 kPa, x2 = 0.199	978.8 ± 0.43
352.59 K, 9035 kPa, x2 = 0.199	980.29 ± 0.43
352.59 K, 9983 kPa, x2 = 0.199	981.7 ± 0.43
352.59 K, 11018 kPa, x2 = 0.199	983.2 ± 0.43
352.59 K, 12014 kPa, x2 = 0.199	984.65 ± 0.43
352.59 K, 13125 kPa, x2 = 0.199	986.24 ± 0.43
352.59 K, 14000 kPa, x2 = 0.199	987.44 ± 0.43
352.59 K, 15014 kPa, x2 = 0.199	988.92 ± 0.43
352.59 K, 15934 kPa, x2 = 0.199	990.14 ± 0.43
352.59 K, 17055 kPa, x2 = 0.199	991.66 ± 0.43
352.59 K, 17954 kPa, x2 = 0.199	992.83 ± 0.43
352.59 K, 19034 kPa, x2 = 0.199	994.28 ± 0.43
352.59 K, 20005 kPa, x2 = 0.199	995.52 ± 0.43
352.67 K, 1064 kPa, x2 = 0	992.39 ± 0.44
352.67 K, 2003 kPa, x2 = 0	993.54 ± 0.44
352.67 K, 3024 kPa, x2 = 0	994.79 ± 0.44
352.67 K, 4003 kPa, x2 = 0	995.98 ± 0.44
352.67 K, 5048 kPa, x2 = 0	997.22 ± 0.43
352.67 K, 6013 kPa, x2 = 0	998.36 ± 0.43
352.67 K, 7013 kPa, x2 = 0	999.51 ± 0.43
352.67 K, 8050 kPa, x2 = 0	1000.73 ± 0.43
352.67 K, 9018 kPa, x2 = 0	1001.82 ± 0.43
352.67 K, 10003 kPa, x2 = 0	1002.93 ± 0.43
352.67 K, 11003 kPa, x2 = 0	1004.07 ± 0.43
352.67 K, 12004 kPa, x2 = 0	1005.16 ± 0.43
352.67 K, 12998 kPa, x2 = 0	1006.25 ± 0.44
352.67 K, 14005 kPa, x2 = 0	1007.34 ± 0.44
352.67 K, 15038 kPa, x2 = 0	1008.46 ± 0.44
352.67 K, 16006 kPa, x2 = 0	1009.49 ± 0.44
352.67 K, 17027 kPa, x2 = 0	1010.58 ± 0.44
352.67 K, 18001 kPa, x2 = 0	1011.6 ± 0.44
352.67 K, 19031 kPa, x2 = 0	1012.65 ± 0.44
352.67 K, 20017 kPa, x2 = 0	1013.74 ± 0.44
352.85 K, 7014 kPa, x2 = 0.3818	941.65 ± 0.43
352.85 K, 8124 kPa, x2 = 0.3818	944.24 ± 0.43
352.85 K, 9071 kPa, x2 = 0.3818	946.38 ± 0.43
352.85 K, 10020 kPa, x2 = 0.3818	948.55 ± 0.43
352.85 K, 11000 kPa, x2 = 0.3818	950.66 ± 0.43
352.85 K, 12010 kPa, x2 = 0.3818	952.84 ± 0.43
352.85 K, 13005 kPa, x2 = 0.3818	954.93 ± 0.43
352.85 K, 14021 kPa, x2 = 0.3818	956.99 ± 0.43
352.85 K, 15021 kPa, x2 = 0.3818	958.98 ± 0.43
352.85 K, 16002 kPa, x2 = 0.3818	960.92 ± 0.43
352.85 K, 17007 kPa, x2 = 0.3818	962.89 ± 0.43
352.85 K, 18002 kPa, x2 = 0.3818	964.77 ± 0.43
352.85 K, 19018 kPa, x2 = 0.3818	966.66 ± 0.43
353.15 K, 101 kPa, x2 = 0	989.76 ± 0.44
362.38 K, 5067 kPa, x2 = 0.199	959.54 ± 0.43
362.38 K, 6020 kPa, x2 = 0.199	961.18 ± 0.43
362.38 K, 7006 kPa, x2 = 0.199	962.87 ± 0.43
362.38 K, 8052 kPa, x2 = 0.199	964.61 ± 0.44
362.38 K, 9004 kPa, x2 = 0.199	966.16 ± 0.44
362.38 K, 9993 kPa, x2 = 0.199	967.76 ± 0.44
362.38 K, 11055 kPa, x2 = 0.199	969.42 ± 0.43
362.38 K, 12043 kPa, x2 = 0.199	970.93 ± 0.43
362.38 K, 13005 kPa, x2 = 0.199	972.44 ± 0.43
362.38 K, 14008 kPa, x2 = 0.199	973.98 ± 0.43
362.38 K, 14980 kPa, x2 = 0.199	975.41 ± 0.43
362.38 K, 16011 kPa, x2 = 0.199	976.94 ± 0.43
362.38 K, 17005 kPa, x2 = 0.199	978.39 ± 0.43
362.38 K, 18009 kPa, x2 = 0.199	979.82 ± 0.43
362.38 K, 19011 kPa, x2 = 0.199	981.22 ± 0.43
362.38 K, 20040 kPa, x2 = 0.199	982.7 ± 0.43
362.51 K, 1007 kPa, x2 = 0	979.8 ± 0.44
362.51 K, 2022 kPa, x2 = 0	981.13 ± 0.44
362.51 K, 3029 kPa, x2 = 0	982.49 ± 0.44
362.51 K, 4004 kPa, x2 = 0	983.74 ± 0.44
362.51 K, 5006 kPa, x2 = 0	985.01 ± 0.44
362.51 K, 6003 kPa, x2 = 0	986.27 ± 0.43
362.51 K, 6999 kPa, x2 = 0	987.5 ± 0.43
362.51 K, 7993 kPa, x2 = 0	988.73 ± 0.43
362.51 K, 9007 kPa, x2 = 0	989.99 ± 0.43
362.51 K, 9993 kPa, x2 = 0	991.16 ± 0.43
362.51 K, 10997 kPa, x2 = 0	992.36 ± 0.43
362.51 K, 11993 kPa, x2 = 0	993.56 ± 0.43
362.51 K, 12838 kPa, x2 = 0	994.53 ± 0.43
362.51 K, 14038 kPa, x2 = 0	995.94 ± 0.43
362.51 K, 15044 kPa, x2 = 0	997.1 ± 0.43
362.51 K, 16029 kPa, x2 = 0	998.18 ± 0.43
362.51 K, 17006 kPa, x2 = 0	999.27 ± 0.43
362.51 K, 18016 kPa, x2 = 0	1000.4 ± 0.43
362.51 K, 18987 kPa, x2 = 0	1001.47 ± 0.43
362.73 K, 8081 kPa, x2 = 0.3818	925.8 ± 0.44
362.73 K, 9009 kPa, x2 = 0.3818	928.21 ± 0.43
362.73 K, 10010 kPa, x2 = 0.3818	930.72 ± 0.43
362.73 K, 11009 kPa, x2 = 0.3818	933.15 ± 0.43
362.73 K, 11996 kPa, x2 = 0.3818	935.49 ± 0.43
362.73 K, 13008 kPa, x2 = 0.3818	937.87 ± 0.43
362.73 K, 14001 kPa, x2 = 0.3818	940.11 ± 0.43
362.73 K, 15006 kPa, x2 = 0.3818	942.32 ± 0.43
362.73 K, 16002 kPa, x2 = 0.3818	944.47 ± 0.43
362.73 K, 17016 kPa, x2 = 0.3818	946.62 ± 0.43
362.73 K, 18023 kPa, x2 = 0.3818	948.72 ± 0.43
362.73 K, 19014 kPa, x2 = 0.3818	950.73 ± 0.43
